Consider four molecules from US20200360531A1, “ANTIBODY DRUG CONJUGATES (ADCS) WITH NAMPT INHIBITORS” (Bayer Aktiengesellschaft, priority 2018, published 2020).

pIC50: −log10 of the molar value. “And” between values parts separate entries of the source, which are not always exact repeats. Identical values can stand only once.

The test system of data set [1] is murine renal cell carcinoma model RENCA. The following applies: cited from earlier work.
Data set [2] relates to human breast and lung cancer cell line-derived in vivo models. The following applies: in vitro and in vivo; cited from earlier work.
A further data set has as its system U251 MG. The data set can be described thus: Cell proliferation assay, Cell Titer Glo (CTG) method, U251 MG. Format: cell-based. The following applies: Homo sapiens, U-251, 72 h, Table 2. As for the experimental part: (§1) Cell Proliferation Assay for Nampt-ADCs and Nampt-SMOLs
(§2) Cell Titer Glo (CTG) Method
(§3) To this end, 75 μL per well CTG solution (Promega, catalog #G755B and G756B) was added to cells in sister plates, incubated for 10 min, and luminescence was measured on a VICTOR V instrument (Perkin Elmer). After incubation for either 72 or 96 hrs (Table 1) in the presence of test compounds, 100 μl per well CTG solution was added to all test wells, incubated for 10 min and luminescence was measured on a VICTOR V instrument. […] The DRC software is a Biobook Spreadsheet that was developed by Bayer AG and Bayer Business Services on the IDBS E-Workbook Suite platform (IDBS: ID Business Solutions Ltd., Guildford, UK).
(ATP-based viability assays read luminescence as a measure of living cells.)

The subject of a further data set is MDA-MB-453. In words: Cell proliferation assay, Cell Titer Glo (CTG) method, MDA-MB-453. As to conditions: Homo sapiens, MDA-MB-453, 72 h, Table 2, read-out: MDA-MB-453 72 h IC50. Format: cell-based. The method, then:
as §1, §2, §3

A further data set relates to A549 C4.4a B4. The data set can be described thus: Cell proliferation assay, Cell Titer Glo (CTG) method, A549 C4.4a B4. The following applies: Homo sapiens, A549, 72 h, Table 2, read-out: A549 C4.4a B4 72 h IC50. Format: cell-based, human. The method, then:
as §1, §2, §3

In another data set the target is T1, human NAMPT (Homo sapiens, UniProt P43490).
T1 construct: N-terminally His6-tagged recombinant full length human NAMPT; His6 (N); made in house; host or cells: E. coli
The data set can be described thus: NAMPT biochemical assay (hNAMPT IC50), cascade assay with NMNAT1 and NAD/NADH-Glo detection. As to conditions: Table 2; replicate values on separate lines. The source says:
NAMPT Biochemical Assay (hNAMPT IC50)
Nicotinamide phosphoribosyltransferase (NAMPT) inhibitory activity of compounds of the present invention was quantified employing a cascade assay as described in the following paragraphs. The assay couples the conversion of nicotinamide (NAM) to nicotinamide mononucleotide (NMN) by NAMPT with the conversion of NMN to […] adenine dinucleotide (NAD^+) by nicotinamide mononucleotide adenylyltransferase 1 (NMNAT1) and the subsequent quantification of the generated NAD^+ by a commercial detection kit (NAD/NADH-Glo™ Assay from Promega, #G9072).
N-terminally His6-tagged recombinant full length human NAMPT and N-terminally His6-tagged recombinant full length human NMNAT1, both expressed in E. coli and purified via Ni-NTA-affinity chromatography and consecutive size exclusion chromatography, were used as enzymes.
For the assay 50 nl of a 100 fold concentrated solution of the test compound in DMSO was pipetted into a white low volume 384 well microtiter plate (Greiner Bio-One, Frickenhausen, Germany), 2.5 μl of a solution of NAMPT in aqueous NMNAT1-containing assay buffer [50 mM Tris/HCl pH 7.5, 12 mM MgCl2, 0.6 mM adenosine-tri-phosphate (ATP), 1 nM NMNAT1, 0.02% (w/v) bovine serum albumin (Sigma-Aldrich #P7906), 0.001% (v/v) Tween-20 (Sigma-Aldrich #P7949)] were added and the mixture was incubated for 15 min at 22° C. to allow pre-binding of the test compounds to the enzyme before the start of the enzyme reaction. Then the reaction was started by the addition of 2.5 μl of a solution of NAM (300 nM=>final conc. in the 5 μl assay volume is 150 nM, Sigma-Aldrich #^47865) and 5-phosphorylribose-1-pyrophosphate pentasodium salt (PRPP, 1.2 μM=>final conc. in the 5 μl assay volume is 0.6 μM, Sigma-Aldrich P8296) in assay buffer and the resulting mixture was incubated for a reaction time of 20 min at 22° C. The concentration of NAMPT was adjusted depending of the activity of the enzyme lot and was chosen appropriate to have the assay in the linear range, typical final concentration in the 5 μl assay volume was 0.16 nM.
The resulting mixture was incubated 2 h at 22° C. to allow a steady-state of the detection system. Subsequently the generated luminescence was measured in a suitable luminescence reader, e.g. a Viewlux™ (Perkin-Elmer), and taken as a measure for the generated NAD^+.

For another data set, the system named is THP-1. The data set can be described thus: Cell proliferation assay, Cell Titer Glo (CTG) method, THP-1. Format: cell-based, human. As to conditions: Homo sapiens, THP-1; Table 2; 72 h. As for the experimental part:
as §1, §2, §3

In general, pIC50 refers to the negative decadic logarithm of the IC50, by convention in mol/L.

T1 sequence (P43490 whole entry): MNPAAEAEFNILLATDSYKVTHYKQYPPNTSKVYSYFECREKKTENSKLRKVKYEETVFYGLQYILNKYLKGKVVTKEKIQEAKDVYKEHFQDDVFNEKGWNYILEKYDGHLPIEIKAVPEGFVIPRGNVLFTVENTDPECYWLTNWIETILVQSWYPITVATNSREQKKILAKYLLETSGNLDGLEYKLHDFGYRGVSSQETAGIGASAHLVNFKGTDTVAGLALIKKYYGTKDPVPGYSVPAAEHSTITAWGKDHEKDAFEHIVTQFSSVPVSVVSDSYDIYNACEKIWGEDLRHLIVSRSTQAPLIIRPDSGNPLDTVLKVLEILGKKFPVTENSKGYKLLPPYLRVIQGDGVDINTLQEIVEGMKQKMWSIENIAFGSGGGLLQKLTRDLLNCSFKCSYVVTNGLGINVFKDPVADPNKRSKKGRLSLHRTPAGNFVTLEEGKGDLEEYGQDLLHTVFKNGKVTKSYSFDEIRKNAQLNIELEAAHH

For the molecule `O=C(/C=C/c1cccnc1)NCCCCC1CCN(C(=O)c2ccccc2)CC1` [daporinad, (E)-N-[4-(I-benzoylpiperidin-4-yl)butyl]-3-(pyridine-3-yl)-acrylamide], the In vivo efficacy result in data set [1] is “In vivo efficacy of daporinad was shown”.
In the case of `N#CN=C(NCCCCCCOc1ccc(Cl)cc1)Nc1ccncc1` [CHS-828, N-[6-(4-chlorophenoxy)hexyl]-N′-cyano-N″-4-pyridinyl-guanidine], the cytotoxic effects entry in data set [2] was “highly cytotoxic effects”.
In the case of `O=C(Nc1ccc(-c2cc(-c3ccc4cccnc4c3)c(=O)[nH]n2)cc1)N1Cc2ccncc2C1` [Example 24, N-{4-[6-oxo-5-(quinolin-7-yl)-1,6-dihydropyridazin-3-yl]phenyl}-1,3-dihydro-2H-pyrrolo[3,4-c]pyridine-2-carboxamide], the pIC50 in the data set on U251 MG is more than 10.52; in the data set with MDA-MB-453 it was more than 10.52; with A549 C4.4a B4, 8.31; against human NAMPT it was 9.62 and 9.53; with THP-1, 11.00.
Take `O=C1NN=C(c2ccc(NC(=O)N3Cc4ccncc4C3)cc2)CC1c1ccc2[nH]ccc2c1` (stereo not drawn) [Example 21, N-{4-[5-(1H-Indol-5-yl)-6-oxo-1,4,5,6-tetrahydropyridazin-3-yl]phenyl}-1,3-dihydro-2H-pyrrolo[3,4-c]pyridine-2-carboxamide]: the pIC50 is more than 10.52 with U251 MG; more than 10.52 with MDA-MB-453; 7.39 with A549 C4.4a B4; 9.41 and 9.33 at human NAMPT; more than 11.52 with THP-1.
